Test results as given in patent publication US20060018951A1, “pH-responsive film for intravaginal delivery of a beneficial agent” (SRI International, priority 2003, published 2006).

Test system: sperm
Assay: Sperm motility assay
Type: cell-based, Sprague-Dawley rats
Protocol: Male Sprague-Dawley-rats, between the ages of 16-22 weeks, were used for this study. Following anesthesia, both testes were removed and the epididymides were collected, rinsed in warm Dulbecco's phosphate buffered saline (37° C.), and placed in a petri dish containing approximately 10 mL warm MHF-10 (37° C.). The epididymides were minced with scissors to release sperm. Pipette sperm suspension into a 50 mL plastic centrifuge tube with a screw cap. Dilute sperm with additional MHF-10 (approximately 5-12 mL) to form a milky suspension. The initial percentage of motile sperm must be at least 70% for a valid assay, and is determined by inoculating 200 μL sperm suspension into 0.8 mL MHF-10 and counting motile versus nonmotile sperm. After the test article concentrations equilibrated in a 36° to 37° C. incubator for at least 30 minutes, 200 μL aliquots of the sperm suspension were added to the 0.8 mL test compound concentrations, two at a time, at 5 minute intervals, beginning with the highest concentration and proceeding to in order to the lowest concentration, then ending with vehicle and positive controls. The final volume was 1 mL per test compound concentration. Motility was assessed using a microscope. 50-μL aliquots of the test concentration, containing sperm, were added to the wells of preheated glass slides and covered with preheated glass coverslips. Pipette tips, slides, and coverslips were maintained at 36-37° C. on a warming plate. Motility was assessed at the appropriate exposure times, generally 20 and 40 min after addition of sperm to the test concentration. The degrees of motility of≧200 sperm per concentration per time point were evaluated as either not motile (0), incipiently motile (quivering/pulsing/wiggling) (1), slowly motile (2), or rapidly motile (3). Criteria for a Valid Assay. […] Percent motility in the tables below is calculated as (Prog. Motile)/Total (Prog.+Incip.+Non)×100.

[1] = Experiment B, 1 min, film 49.1-50 mg, N9 amount not given, sperm count
[2] = Experiment B, 15 min, film 49.1-50 mg, N9 amount not given, sperm count
[3] = Experiment B, 30 min, film 49.1-50 mg, N9 amount not given, sperm count
[4] = Experiment C, 1 min, Nos 5-8: films 49.9-51.0 mg, N9 amount not given, sperm count
[5] = Experiment C, 15 min, Nos 5-8: films 49.9-51.0 mg, N9 amount not given, sperm count
[6] = Experiment C, 30 min, Nos 5-8: films 49.9-51.0 mg, N9 amount not given, sperm count
[7] = Experiment D, 1 min, films 50-50.09 mg, N9 amount not given, sperm count
[8] = Experiment D, 15 min, films 50-50.09 mg, N9 amount not given, sperm count
[9] = Experiment D, 30 min, films 50-50.09 mg, N9 amount not given, sperm count
[10] = first sperm study (T8), 1 min, films 4.3-19.8 mg, sperm count
[11] = first sperm study (T8), 15 min, films 4.3-19.8 mg, sperm count
[12] = first sperm study (T8), 30 min, films 4.3-19.8 mg, sperm count

## nonylphenoxypolyethoxy ethanol [Formulation N-9]
Experiment B, 1 min, film 49.1-50 mg, N9 amount not given
  % Motility: 0%
[1]
  Incip.Mot: 0
  Non-Mot: 200
  Prog.-Mot: 0
Experiment B, 15 min, film 49.1-50 mg, N9 amount not given
  % Motility: 0%
[2]
  Incip.Mot: 0
  Non-Mot: 200
Experiment B, 30 min, film 49.1-50 mg, N9 amount not given
  % Motility: 0%
[3]
  Incip.Mot: 0
  Non-Mot: 200
  Prog.Mot: 0
Experiment C, 1 min, Nos 5-8: films 49.9-51.0 mg, N9 amount not given
  % Motility: 0%
[4]
  Incip.Mot: 0
  Non-Mot: 200
  Prog-Mot: 0
Experiment C, 15 min, Nos 5-8: films 49.9-51.0 mg, N9 amount not given
  Total: 0
[5]
  Incip.Mot: 0
  Mot: 0
  Non-Mot: 200
Experiment C, 30 min, Nos 5-8: films 49.9-51.0 mg, N9 amount not given
  Total: 0
[6]
  Incip.Mot: 0
  Mot: 0
  Non-Mot: 200
Experiment D, 1 min, films 50-50.09 mg, N9 amount not given
  % Motility: 0%
[7]
  Incip.Mot: 0
  Non-Mot: 200
  Prog.Mot: 0
Experiment D, 15 min, films 50-50.09 mg, N9 amount not given
  % Motility: 0%
[8]
  Incip.Mot: 0
  Non-Mot: 200
  Prog.Mot: 0
Experiment D, 30 min, films 50-50.09 mg, N9 amount not given
  % Motility: 0%
[9]
  Incip.Mot: 0
  Mot: 0
First sperm study (T8), 1 min, films 4.3-19.8 mg
  % Motility: 0%
[10]
  Incip.Mot: 0
  Non-Mot: 100
First sperm study (T8), 15 min, films 4.3-19.8 mg
  % Motility: 0%
[11]
  Incip.Mot: 0
  Non-Motile: 100
  Prog-Motile: 0
First sperm study (T8), 30 min, films 4.3-19.8 mg
  % Motility: 0%
[12]
  Incip.Mot: 0
  Non-Motile: 100
  Prog-Motile: 0

## CC(O)C(=O)O (centres unmarked) [Lactic Acid 4%, Lactic Acid]
Experiment B, 1 min, 100 μl solution, sperm count
  Non-Mot: 103
Experiment B, 1 min, 200 μl solution, sperm count
  Non-Mot: 200
